Converted amounts (≈) assume the structure as drawn.
Legend:
[1] = system: A549 (lung cancer cells); test: Inhibition of growth of tumor cells (SRB assay), A549; assay type: cell-based; details: 0.01-100 μg/mL, cultured 48 hours
Procedure: (§1) Cells were cultured in Dulbecco's modified Eagle's medium (hereunder referred to as DMEM) containing 5-10% fetal bovine serum and L-glutamine in an incubator of 37° C. and 5% CO2. Adherent cells were suspended using a trypsin-EDTA solution and isolated and collected for testing.
(§2) The cells were cultured on a 96-well plate, 5×10^3-10^4 cells each. After treating with the extract and the active ingredient at a concentration of 0, 0.01, 0.1, 1, 10 and 100 μg/mL, the cells were cultured for 48 hours. After culturing for […], the culture medium was removed from each well and 200 μL of 10% TCA (trichloroacetic acid) was added. The cells were fixed to the bottom of the plate by letting alone at 4° C. for 1 hour. After fixation, the plate was washed with distilled water for 5-6 times to remove the remaining TCA solution and then completely dried. To the plate was added 200 μL of a staining solution per each well, which was prepared by dissolving 0.4% SRB solution in 1% acetic acid solution. After 30 minutes' staining, the plate was washed with 1% acetic acid solution for 5-6 times to remove excess SRB. The plate was dried at room temperature and 200 μL of 10 mM trisma base solution (unbuffered) was added per each well. After 10 minutes' of shaking using a titer plate shaker to elute out the staining solution, light absorbance was measured at 540 nm using a microplate reader.

[2] = system: mice; test: Toxicity test, intraperitoneal injection to mice; assay type: in vivo; details: for Mice died: intraperitoneal, 20 mg/kg, 10 mice per group, observed 7 days; for Cause of the death of the mice: right after the intraperitoneal injection
Procedure: (§3) Toxicity test was performed as follows for the Androsace umbellata Merr. extract, fraction thereof and saxifragifolins B and D of the present invention.
(§4) Each of the Androsace umbellata Merr. extract, fraction thereof and saxifragifolins D and B was dissolved in 1% sodium carboxymethlycellulose and diluted with water. The solution was intraperitoneally injected to mice (10 per each group) at a dose of 0, 0.016, 0.8, 4, 20 and 100 mg/kg. […] No mouse died in the Androsace umbellata Merr. extract group. All the 10 mice of the 100 mg/kg Androsace umbellata Merr. fraction group died right after the administration and two died in the 20 mg/kg group. 3 mice died in each of the 20 mg/kg saxifragifolin B and saxifragifolin D groups. No more mice died until the 7th day. […] When the Androsace umbellata Merr. extract, fraction thereof and saxifragifolins D and B were dissolved in corn oil and orally administered at a dose of 1, 10 and 100 mg/kg, no mice died for 7 days.

[3] = system: SK-OV-3 (uterine cancer cells); test: Inhibition of growth of tumor cells (SRB assay), SK-OV-3; assay type: cell-based; details: SK-OV-3 cells, 0.01-100 μg/mL, cultured 48 hours
Procedure: as §1, §2

[4] = system: HCT15 (colon cancer cells); test: Inhibition of growth of tumor cells (SRB assay), HCT15; assay type: cell-based; details: cultured 48 hours; for Inhibitory effect against growth of cancer cells IC50 HCT15: 0.01-100 μg/mL
Procedure: as §1, §2

[5] = system: MDA-MB-231 (breast cancer cells); test: Inhibition of growth of tumor cells (SRB assay), MDA-MB-231; assay type: cell-based; details: MDA-MB-231 cells, 0.01-100 μg/mL, cultured 48 hours
Procedure: as §1, §2

[6] = system: mice; test: Toxicity test, oral administration to mice; assay type: in vivo; details: orally, in corn oil, 1, 10 and 100 mg/kg, 7 days
Procedure: as §3, §4

[7] = system: HeLa (uterine cancer cells); test: Inhibition of growth of tumor cells (SRB assay), HeLa; assay type: cell-based; details: 0.01-100 μg/mL, cultured 48 hours
Procedure: as §1, §2

[8] = system: MCF7 (breast cancer cells); test: Inhibition of growth of tumor cells (SRB assay), MCF7; assay type: cell-based; details: 0.01-100 μg/mL, cultured 48 hours
Procedure: as §1, §2

[9] = system: SK-OV-3 (cancer cells); test: Inhibition of growth of tumor cells (SRB assay), SK-OV-3; assay type: cell-based; details: Homo sapiens, SK-OV-3 cells, 0.01-100 μg/mL, cultured 48 hours, read-out: Inhibitory effect against growth of cancer cells IC50 SK-OV-3
Procedure: as §1, §2

| IC50 ([1]; Homo sapiens, read-out: Inhibitory effect against growth of cancer cells IC50 A549) | IC50 [9] | IC50 ([4]; Homo sapiens, HCT-15, 0.01-100 μg/mL, read-out: Inhibitory effect against growth of cancer cells IC50 HCT15) | IC50 ([5]; Homo sapiens, read-out: Inhibitory effect against growth of cancer cells IC50 MDA-MB-231) | IC50 ([7]; Homo sapiens, read-out: Inhibitory effect against growth of cancer cells IC50 HeLa) | IC50 ([8]; Homo sapiens, read-out: Inhibitory effect against growth of cancer cells IC50 MCF7) | Compound | Inhibitory effect against growth of cancer cells IC50 A549 [1] | Mice died [2] | Cause of the death of the mice [2] | Inhibitory effect against growth of cancer cells IC50 SK-OV-3 [3] | Inhibitory effect against growth of cancer cells IC50 HCT15 [4] | Inhibitory effect against growth of cancer cells IC50 MDA-MB-231 [5] | Mice died [6] | Inhibitory effect against growth of cancer cells IC50 HeLa [7] | Inhibitory effect against growth of cancer cells IC50 MCF7 [8] |
| --- | --- | --- | --- | --- | --- | --- | --- | --- | --- | --- | --- | --- | --- | --- | --- |
| – | – | – | – | – | – | cyclamiretin A 3-O-{β-D-glucopyranosyl-(1→4)-β-D-glucopyranosyl-(1→2)-β-D-xylopyranosyl-(1→2)-β-D-glucopyranosyl-(1→4)-α-L-arabinopyranoside} [Saxifragifolin D] | 0.016 ± 0.01 µg/mL | 3 mice | hemolysis of red blood cells | 6.36 ± 0.12 µg/mL | 0.558 ± 0.24 µg/mL | 1.32 ± 0.03 µg/mL | no mice died | 0.98 ± 0.05 µg/mL | 3.23 ± 0.10 µg/mL |
| 0.011 ± 0.01 µg/mL (≈ 0.0202 µM) | 0.77 ± 0.03 µg/mL (≈ 1.42 µM) | 0.014 ± 0.02 µg/mL (≈ 0.0258 µM) | 0.02 ± 0.01 µg/mL (≈ 0.0368 µM) | 0.21 ± 0.01 µg/mL (≈ 0.386 µM) | 0.5 ± 0.02 µg/mL (≈ 0.92 µM) | COc1cccc2c1C(=O)c1c(O)c3c(c(O)c1C2=O)C[C@@](O)(C(=O)CO)C[C@@H]3O[C@H]1C[C@H](N)[C@H](O)[C@H](C)O1 [Doxorubicin, reference compound] | – | – | – | – | – | – | – | – | – |
| – | – | – | – | – | – | cyclamiretin A 3-O-{β-D-xylopyranosyl-(1→2)-β-D-glucopyranosyl-(1→4)-β-D-glucopyranosyl-(1→2)-α-L-arabinopyranoside} [Saxifragifolin B] | 0.036 ± 0.02 µg/mL | 3 mice | hemolysis of red blood cells | 8.39 ± 0.23 µg/mL | 0.183 ± 0.17 µg/mL | 3.02 ± 0.02 µg/mL | no mice died | 1.22 ± 0.04 µg/mL | 6.88 ± 0.13 µg/mL |
